target: BRD4 (Homo sapiens, UniProt O60885); test: Time Resolved Fluorescence Resonance Energy Transfer (TR-FRET) binding assay, BRD4; details: one of the FRET assays described; read-out: FRET BRD4 IC50

How did the IC50 turn out when `Cc1nnn(C)c1-c1cnc2c3ccc(C(=O)N4CC(F)C4)cc3n([C@H](c3ccccc3)C3CCOCC3)c2c1` [Example 413, 5-[7-(3-Fluoroazetidine-1-carbonyl)-5-[(S)-oxan-4-yl(phenyl)methyl]-5H-pyrido[3,2-b]indol-3-yl]-1,4-dimethyl-1H-1,2,3-triazole] was run?
The IC50 was < 5 nM.

For `Cc1nnn(C)c1-c1cnc2c3ccc(C(=O)N4CC(F)(F)C4)cc3n([C@H](c3ccccc3)C3CCOCC3)c2c1` [Example 414, 5-[7-(3,3-Difluoroazetidine-1-carbonyl)-5-[(S)-oxan-4-yl(phenyl)methyl]-5H-pyrido[3,2-b]indol-3-yl]-1,4-dimethyl-1H-1,2,3-triazole], which IC50 is on record?
The IC50 was < 5 nM.

How did the IC50 turn out when `Cc1nnn(C)c1-c1cnc2c3ccc(C(C)(O)C4CC4)c(F)c3n([C@H](c3ccccc3)C3CCOCC3)c2c1` (stereo partly drawn) [Example 415, 1-Cyclopropyl-1-{6-fluoro-3-[4-(^2H3)methyl-1-methyl-1H-1,2,3-triazol-5-yl]-5-[(S)-oxan-4-yl(phenyl)methyl]-5H-pyrido[3,2-b]indol-7-yl}ethan-1-ol] was run?
Its IC50 is < 5 nM.

With `Cc1nnn(C)c1-c1cnc2c3ccc(C(C)(O)C4CC4)c(F)c3n([C@H](c3ccccc3)C3CCOCC3)c2c1` (stereo partly drawn) [Example 416, 1-Cyclopropyl-1-{6-fluoro-3-[4-(^2H3)methyl-1-methyl-1H-1,2,3-triazol-5-yl]-5-[(S)-oxan-4-yl(phenyl)methyl]-5H-pyrido[3,2-b]indol-7-yl}ethan-1-ol] as the compound, how does the IC50 read?
Its IC50 is < 5 nM.

`Cc1cnn(C)c1-c1cnc2c3ccc(S(C)(=O)=O)cc3n([C@H](c3ccccc3)C3CCOCC3)c2c1` [Example 417, 5-{7-Methanesulfonyl-5-[(S)-oxan-4-yl(phenyl)methyl]-5H-pyrido[3,2-b]indol-3-yl}-1,4-dimethyl-1H-pyrazole] was tested. Which IC50 did it give?
The IC50 was < 5 nM.

`Cn1nccc1-c1cnc2c3ccc(S(C)(=O)=O)cc3n([C@H](c3ccccc3)C3CCOCC3)c2c1` [Example 418, 5-{7-Methanesulfonyl-5-[(S)-oxan-4-yl(phenyl)methyl]-5H-pyrido[3,2-b]indol-3-yl}-1-methyl-1H-pyrazole] was tested. Which IC50 did it give?
The IC50 was < 25 nM.

`Cc1nnn(C)c1-c1cnc2c3ccc(C4(O)CC4)cc3n([C@H](c3ccccc3)C3CCOCC3)c2c1` [Example 419, 1-[3-(Dimethyl-1H-1,2,3-triazol-5-yl)-5-[(S)-oxan-4-yl(phenyl)methyl]-5H-pyrido[3,2-b]indol-7-yl]cyclopropan-1-ol] was tested. Which IC50 did it give?
Its IC50 is < 5 nM.

For `C=C(C)c1ccc2c3ncc(-c4c(C)nnn4C)cc3n([C@H](c3ccccc3)C3CCOCC3)c2c1` [Example 420, 1,4-Dimethyl-5-{5-[(S)-oxan-4-yl(phenyl)methyl]-7-(prop-1-en-2-yl)-5H-pyrido[3,2-b]indol-3-yl}-1H-1,2,3-triazole], which IC50 is on record?
The IC50 was < 5 nM.

For `CC(=O)c1ccc2c3ncc(-c4c(C)nnn4C)cc3n([C@H](c3ccccc3)C3CCOCC3)c2c1` [Example 421, 1-[3-(Dimethyl-1H-1,2,3-triazol-5-yl)-5-[(S)-oxan-4-yl(phenyl)methyl]-5H-pyrido[3,2-b]indol-7-yl]ethan-1-one], which IC50 is on record?
Its IC50 is < 5 nM.

`Cc1nnn(C)c1-c1cnc2c3ccc(C(C)(O)CO)cc3n([C@H](c3ccccc3)C3CCOCC3)c2c1` (stereo partly drawn) [Example 424, 2-[3-(Dimethyl-1H-1,2,3-triazol-5-yl)-5-[(S)-oxan-4-yl(phenyl)methyl]-5H-pyrido[3,2-b]indol-7-yl]propane-1,2-diol] was tested. Which IC50 did it give?
The IC50 was < 5 nM.

For `Cc1nnn(C)c1-c1cnc2c3cc(C(=O)N4CC(C)(O)C4)ccc3n([C@H](c3ccccc3)C3CCOCC3)c2c1` [Example 427, 1-[3-(Dimethyl-1H-1,2,3-triazol-5-yl)-5-[(S)-oxan-4-yl(phenyl)methyl]-5H-pyrido[3,2-b]indole-8-carbonyl]-3-methylazetidin-3-ol], which IC50 is on record?
The IC50 was < 5 nM.

For `Cc1nnn(C)c1-c1cnc2c3ccc([C@@](C)(O)C4CC4)c(F)c3n([C@H](c3ccccc3)C3CCOCC3)c2c1` [Example 431, (1S)-1-Cyclopropyl-1-[3-(dimethyl-1H-1,2,3-triazol-5-yl)-6-fluoro-5-[(S)-oxan-4-yl(phenyl)methyl]-5H-pyrido[3,2-b]indol-7-yl]ethan-1-ol], which IC50 is on record?
The IC50 was < 5 nM.

With `Cc1nnn(C)c1-c1cnc2c3ccc([C@](C)(O)C4CC4)c(F)c3n([C@H](c3ccccc3)C3CCOCC3)c2c1` [Example 434, (1R)-1-cyclopropyl-1-{6-fluoro-3-[4-(^2H3)methyl-1-methyl-1H-1,2,3-triazol-5-yl]-5-[(S)-oxan-4-yl(phenyl)methyl]-5H-pyrido[3,2-b]indol-7-yl}ethan-1-ol] as the compound, how does the IC50 read?
Its IC50 is < 5 nM.

How did the IC50 turn out when `[2H]C([2H])([2H])c1nnn(C)c1-c1cnc2c3ccc(C(C)(O)C4CC4)c(F)c3n([C@H](c3ccccc3F)C3CCOCC3)c2c1` (stereo partly drawn) [Example 437, 1-Cyclopropyl-1-{6-fluoro-5-[(S)-(2-fluorophenyl)(oxan-4-yl)methyl]-3-[4-(^2H3)methyl-1-methyl-1H-1,2,3-triazol-5-yl]-5H-pyrido[3,2-b]indol-7-yl}ethan-1-ol] was run?
The IC50 was < 5 nM.

`COc1nnn(C)c1-c1cnc2c3ccc(C(C)(O)C4CC4)c(F)c3n([C@H](c3ccccc3)C3CCOCC3)c2c1` (stereo partly drawn) [Example 439, 1-Cyclopropyl-1-[6-fluoro-3-(4-methoxy-1-methyl-1H-1,2,3-triazol-5-yl)-5-[(S)-oxan-4-yl(phenyl)methyl]-5H-pyrido[3,2-b]indol-7-yl]ethan-1-ol] was tested. Which IC50 did it give?
Its IC50 is < 5 nM.

For `[2H]C([2H])([2H])c1nnn(C)c1-c1cnc2c3cc(F)c(C(C)(O)C4CC4)cc3n([C@H](c3ccccc3)C3CCOCC3)c2c1` (stereo partly drawn) [Example 445, 1-Cyclopropyl-1-{8-fluoro-3-[4-(^2H3)methyl-1-methyl-1H-1,2,3-triazol-5-yl]-5-[(S)-oxan-4-yl(phenyl)methyl]-5H-pyrido[3,2-b]indol-7-yl}ethan-1-ol], which IC50 is on record?
Its IC50 is < 5 nM.

`[2H]C([2H])([2H])c1nnn(C)c1-c1cnc2c3cc(F)c(C(C)(O)C4CC4)cc3n([C@H](c3ccccc3)C3CCOCC3)c2c1` (stereo partly drawn) [Example 446, 1-Cyclopropyl-1-{8-fluoro-3-[4-(^2H3)methyl-1-methyl-1H-1,2,3-triazol-5-yl]-5-[(S)-oxan-4-yl(phenyl)methyl]-5H-pyrido[3,2-b]indol-7-yl}ethan-1-ol] was tested. Which IC50 did it give?
The IC50 was < 5 nM.

With `[2H]C([2H])([2H])c1nnn(C)c1-c1cnc2c3cc(F)c(C(C)(C)O)c(F)c3n([C@H](c3ccccc3)C3CCOCC3)c2c1` [Example 452, 2-{6,8-Difluoro-3-[4-(^2H3)methyl-1-methyl-1H-1,2,3-triazol-5-yl]-5-[(S)-oxan-4-yl(phenyl)methyl]-5H-pyrido[3,2-b]indol-7-yl}propan-2-ol] as the compound, how does the IC50 read?
Its IC50 is < 5 nM.

`Cn1nncc1-c1cnc2c3ccc(S(C)(=O)=O)cc3n([C@H](c3ccccc3)C3CCOCC3)c2c1` [Example 453, 5-{7-Methanesulfonyl-5-[(S)-oxan-4-yl(phenyl)methyl]-5H-pyrido[3,2-b]indol-3-yl}-1-methyl-1H-1,2,3-triazole] was tested. Which IC50 did it give?
The IC50 was < 5 nM.

Which IC50 does the source give for `Cc1ncn(C)c1-c1cnc2c3ccc(S(C)(=O)=O)cc3n([C@H](c3ccccc3)C3CCOCC3)c2c1` [Example 454, 5-{7-Methanesulfonyl-5-[(S)-oxan-4-yl(phenyl)methyl]-5H-pyrido[3,2-b]indol-3-yl}-1,4-dimethyl-1H-imidazole] here?
The IC50 was < 25 nM.

`Cc1n[nH]cc1-c1cnc2c3ccc(S(C)(=O)=O)cc3n([C@H](c3ccccc3)C3CCOCC3)c2c1` [Example 455, 4-{7-Methanesulfonyl-5-[(S)-oxan-4-yl(phenyl)methyl]-5H-pyrido[3,2-b]indol-3-yl}-3-methyl-1H-pyrazole] was tested. Which IC50 did it give?
Its IC50 is < 25 nM.

`Cc1nnn(C)c1-c1cnc2c3ccc(C(N)=O)c(F)c3n([C@H](c3ccccc3)C3CCOCC3)c2c1` [Example 460, 3-(Dimethyl-1H-1,2,3-triazol-5-yl)-6-fluoro-5-[(S)-oxan-4-yl(phenyl)methyl]-5H-pyrido[3,2-b]indole-7-carboxamide] was tested. Which IC50 did it give?
The IC50 was < 5 nM.

`Cc1nnn(C)c1-c1cnc2c3ccc(C(C)(C)N)c(F)c3n([C@H](c3ccccc3)C3CCOCC3)c2c1` [Example 461, 2-[3-(Dimethyl-1H-1,2,3-triazol-5-yl)-6-fluoro-5-[(S)-oxan-4-yl(phenyl)methyl]-5H-pyrido[3,2-b]indol-7-yl]propan-2-amine] was tested. Which IC50 did it give?
Its IC50 is < 5 nM.

For `CC(=O)NC(C)(C)c1ccc2c3ncc(-c4c(C)nnn4C)cc3n([C@H](c3ccccc3)C3CCOCC3)c2c1F` [Example 462, N-{2-[3-(Dimethyl-1H-1,2,3-triazol-5-yl)-6-fluoro-5-[(S)-oxan-4-yl(phenyl)methyl]-5H-pyrido[3,2-b]indol-7-yl]propan-2-yl}acetamide], which IC50 is on record?
Its IC50 is < 5 nM.

How did the IC50 turn out when `Cc1nnn(C)c1-c1cnc2c3ccc(C(C)(C)NS(C)(=O)=O)c(F)c3n([C@H](c3ccccc3)C3CCOCC3)c2c1` [Example 463, N-{2-[3-(Dimethyl-1H-1,2,3-triazol-5-yl)-6-fluoro-5-[(S)-oxan-4-yl(phenyl)methyl]-5H-pyrido[3,2-b]indol-7-yl]propan-2-yl}methanesulfonamide] was run?
The IC50 was < 5 nM.

`COC(=O)NC(C)(C)c1ccc2c3ncc(-c4c(C)nnn4C)cc3n([C@H](c3ccccc3)C3CCOCC3)c2c1F` [Example 464, Methyl N-{2-[3-(dimethyl-1H-1,2,3-triazol-5-yl)-6-fluoro-5-[(S)-oxan-4-yl(phenyl)methyl]-5H-pyrido[3,2-b]indol-7-yl]propan-2-yl}carbamate] was tested. Which IC50 did it give?
The IC50 was < 5 nM.

— US10112941B2, “Tricyclic compounds as anticancer agents” (BRISTOL-MYERS SQUIBB COMPANY, priority 2013, dated 2018)
